From patent US6713629B2 (dated 2004) come the findings set out here.

The structures appear in SMILES notation.

With `CC1(c2ccccc2)SC(=S)N(Nc2ccccc2)C1=NOC(=O)Nc1ccc(Cl)c(Cl)c1` (stereo not shown), the melting point (in general, the temperature of the solid-liquid transition) lay within 95 to 96 °C.
